This data set in a line: Clinical pharmacokinetics of elsiglutide and its metabolites (studies 06-013, TIDE-09-04, TIDE-11-10).

Peptide text beside a SMILES is read from it.

Experimental: Data on human exposure to elsiglutide generated so far originate from three clinical trials, one performed in healthy subjects (study 06-013) and two in cancer patients (TIDE-09-04, TIDE-11-10). The main objective of the first two studies was the evaluation of the safety, tolerability and maximum tolerated dose (MTD) of ascending elsiglutide doses administered as s.c. (both studies) and i.v. (only study 06-013) bolus injections. In study 06-013 elsiglutide was administered as single i.v. or s.c. bolus, while in study TIDE-09-04 each dose was administered as s.c. bolus on 4 consecutive days. Study TIDE-11-10 was a phase II proof of concept study that mainly evaluated the efficacy of elsiglutide administered as 24 mg daily s.c. bolus injections for 4 consecutive days in preventing CID in patients with colorectal cancer receiving 5-FU based chemotherapy (FOLFOX4 or FOLFIRI regimen). The secondary objectives of all three studies included the evaluation of the pharmacokinetics of elsiglutide and its major metabolites in humans.

With `CC[C@H](C)[C@H](NC(=O)[C@H](CC(C)C)NC(=O)[C@H](Cc1c[nH]c2ccccc12)NC(=O)[C@H](C)NC(=O)[C@@H](NC(=O)[C@H](Cc1ccccc1)NC(=O)[C@H](CC(=O)O)NC(=O)[C@H](CCCNC(=N)N)NC(=O)[C@H](C)NC(=O)[C@H](C)NC(=O)[C@H](CC(C)C)NC(=O)[C@H](C)NC(=O)[C@H](CC(=O)O)NC(=O)[C@H](CC(C)C)NC(=O)[C@@H](NC(=O)[C@@H](NC(=O)[C@H](CO)NC(=O)[C@H](CC(C)C)NC(=O)[C@H](CCC(=O)O)NC(=O)[C@H](CO)NC(=O)[C@H](CO)NC(=O)[C@H](Cc1ccccc1)NC(=O)[C@H](CO)NC(=O)CNC(=O)[C@H](CCC(=O)O)NC(=O)CNC(=O)[C@@H](N)Cc1c[nH]cn1)[C@@H](C)O)[C@@H](C)CC)[C@@H](C)CC)C(=O)N[C@@H](C)C(=O)N[C@H](C(=O)N[C@@H](CCCCN)C(=O)N[C@H](C(=O)N[C@H](C(=O)N[C@@H](CC(=O)O)C(=O)N[C@@H](CCCCN)C(=O)N[C@@H](CCCCN)C(=O)O)[C@@H](C)O)[C@@H](C)CC)[C@@H](C)O` [ZP2712] (H-HGEGSFSSELSTILDALAARDFIAWLIATKITDKK-OH; N-terminus assumed), where the note is “Day 1”, the “exposure to metabolite relative to exposure to the parent ZP1846 (elsiglutide)” value is on record as greater than 4 fold. In addition, the half-life (in general, the time in which the quantity being followed falls by half) (human, plasma) is 6 to 9 h. Besides, under “study TIDE-09-04, s.c. on 4 consecutive days”, the “dose dependence of pharmacokinetics (Cmax and AUC increases proportional to dose)” value was “dose independent”.

These data come from patent US20160067311A1, “USE OF ELSIGLUTIDE TO TREAT GASTROINTESTINAL MUCOSITIS INCLUDING CHEMOTHERAPY-INDUCED DIARRHEA” (Helsinn Healthcare SA, priority 2014, published 2016).
